# From US20250210145A1, “METHOD FOR DETERMINING THE RESISTANCE OF A MICROORGANISM TO AN ANTIMICROBIAL AGENT” (Commissariat à l'Energie Atomique et aux Energies …, priority 2023, published 2025)
# Legend:
# [1] = system: Escherichia coli strain ATCC35218 ("EC207"); details: cited from earlier work
# [2] = system: Escherichia coli strain ATCC25922 ("EC10"); experiment: FTIR heavy-water labeling level (metabolism) versus antibiotic concentration, strain EC10; format: cell-based; details: FIG. 4C, amoxicillin 1-64 μg/mL, two hours incubation, Mueller-Hinton medium with 50% v/v heavy water
# Description: (§1) Once the LDA classifier had been parameterized, it was used in a test phase on Escherichia coli cultures.
# (§2) An overnight pre-culture was performed to synchronize the metabolic states of the bacterial populations. Test samples were prepared using different concentrations of amoxicillin (64, 32, 16, 8, 4, 2 and 1 μg/mL), and a culture of each strain was prepared in 2 ml of Mueller-Hinton medium with 50% v/v heavy water and antibiotic. A control sample without antibiotic was prepared. The test samples were then incubated for two hours. After incubation, the test samples were centrifuged and re-suspended in 30 μL of water, then a 5 μl drop was placed on a calcium fluoride slide. The slide was dried by exposure to a hot, dry atmosphere. On each test sample, 64 spectra are acquired using an FTIR microscope at 15× magnification, in order to eliminate potential variations in the sample's thickness of texture.
# (§3) This provided test spectra corresponding to the exposure of bacterial strains to different antibiotic concentrations. The algorithm parameterized during the training phase enabled measuring a labeling level for each sample, which is considered representative of metabolic activity.
# [3] = system: Escherichia coli strain ATCC25922 ("EC10"); details: cited from earlier work
# [4] = system: Escherichia coli strain ATCC35218 ("EC207"); experiment: FTIR heavy-water labeling level (metabolism) versus antibiotic concentration, strain EC207; format: cell-based; details: FIG. 4C, amoxicillin 1-64 μg/mL, two hours incubation, Mueller-Hinton medium with 50% v/v heavy water
# Description: as §1, §2, §3
# [5] = system: Staphylococcus Saprophyticus strains SS91, SS96; experiment: FTIR heavy-water labeling level (metabolism) versus antibiotic concentration, strains not used during training; format: cell-based; details: FIG. 5; each of strains SS91 and SS96, above a strain-specific antibiotic concentration (value not given)
# From the text: The x-axis corresponds to the antibiotic concentration (Gentamicin). The y-axis corresponds to a labeling level.
Compound,sensitivity to the antibiotic (reference strain status) [1],concentration above which the strain is sensitive (labeling level decreases) [2] [µg/mL],sensitivity to the antibiotic (reference strain status) [3],concentration above which growth inhibition is exhibited ([3]; reference strain ATCC25922 (EC10)) [µg/mL],resistance judged from labeling level (metabolism) [4],labeling level as a function of antibiotic concentration [5]
CC1(C)S[C@@H]2[C@H](NC(=O)[C@H](N)c3ccc(O)cc3)C(=O)N2[C@H]1C(=O)O [amoxicillin],resistant,~10,sensitive,4,resistant to all the antibiotic concentrations used,
Gentamicin,,,,,,labeling level decreases
